Source: PubChem BioAssay (NCI)
Several values for one entry are separate records, joined by “and”; a condition that tells them apart may be missing. Equal values may be shown once.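 Grown in 96-well plates, cells were treated for 48 hours with each compound at five concentrations. Insufficient inhibition: endpoint recorded as highest concentration tested. The concentration for 50% growth inhibition is given as GI50. TGI marks complete inhibition of growth.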

Legend:
Test in all cases: growth of human tumour cells (NCI), 48 h
HCT-116 colon = system: HCT-116 colon
HL-60(TB) leukemia = system: HL-60(TB) leukemia
MALME-3M melanoma = system: MALME-3M melanoma
NCI-H226 lung = system: NCI-H226 lung
NCI-H23 lung = system: NCI-H23 lung
NCI-H460 lung = system: NCI-H460 lung
SK-MEL-5 melanoma = system: SK-MEL-5 melanoma
U251 CNS = system: U251 CNS
UACC-257 melanoma = system: UACC-257 melanoma
RPMI-8226 leukemia = system: RPMI-8226 leukemia

| SMILES | TGI (HCT-116 colon) | TGI (HL-60(TB) leukemia) | TGI (MALME-3M melanoma) | TGI (NCI-H226 lung) | TGI (NCI-H23 lung) | TGI (NCI-H460 lung) | TGI (SK-MEL-5 melanoma) | TGI (U251 CNS) | TGI (UACC-257 melanoma) | GI50 (HCT-116 colon) [µM] | GI50 (HL-60(TB) leukemia) [µM] | GI50 (MALME-3M melanoma) | GI50 (NCI-H226 lung) [µM] | GI50 (NCI-H23 lung) [µM] | GI50 (NCI-H460 lung) | GI50 (RPMI-8226 leukemia) [µM] | TGI (RPMI-8226 leukemia) | GI50 (SK-MEL-5 melanoma) | GI50 (U251 CNS) | GI50 (UACC-257 melanoma) [µM] |
| --- | --- | --- | --- | --- | --- | --- | --- | --- | --- | --- | --- | --- | --- | --- | --- | --- | --- | --- | --- | --- |
| O=c1/c(=C/c2ccccc2[N+](=O)[O-])sc2nnc(-c3ccco3)n12 | 58.8 µM | 58.4 µM | 47.1 µM | 61 µM | 64 µM | 56.2 µM | 34.4 µM | 36.6 µM | > 100 µM | – | – | – | – | – | – | – | – | – | – | – |
| COC(=O)COc1ccccc1/C=C1\N=C(c2ccccc2)N(c2cc(C(F)(F)F)ccc2Cl)C1=O | > 100 µM | > 100 µM | 92.5 µM | > 100 µM | > 100 µM | > 100 µM | > 100 µM | > 100 µM | – | 38.2 | 31.1 | 27.5 µM | 66.6 | > 100 | 59.6 µM | 24.9 | 72.7 µM | 42.9 µM | 55.9 µM | – |
| CC(C)N(C(=O)C12C3C4C1C1C4(C#N)C3C12C#N)C(C)C (centres undefined) | – | – | > 100 µM | > 100 µM | > 100 µM | > 100 µM | > 100 µM | > 100 µM | > 100 µM | – | – | – | – | – | – | – | > 100 µM | – | – | – |
| C#CCOc1cccc(-c2ncc3cc(NC(=O)CCl)ccc3n2)c1 | – | 8.02 µM | 3.29 µM | 8.17 µM | 4.71 µM | 4.83 µM | 2.62 µM | 3.23 µM | 3.96 µM | – | 2.28 | 1.65 µM | 2.6 | 1.87 | 2.16 µM | – | – | 1.33 µM | 1.78 µM | 2.02 |
| Cc1c2n(c(=O)[nH]c1=O)C1OC(CO)C(O2)C1O (centres undefined) | > 100 µM | > 100 µM | – | > 100 µM | > 100 µM | > 100 µM | > 100 µM | > 100 µM | > 100 µM | – | – | – | – | – | – | – | > 100 µM | – | – | – |
| NC(N)=N/N=C/c1c(-c2ccsc2)nc2sccn12 | 27.2 µM | 56.4 µM | – | 31.2 µM | 26.4 µM | 28 µM | 28.8 µM | 30 µM | 41.1 µM | 13.7 | 16.3 | – | 16.4 | 13.5 | 14.8 µM | 4.83 | 20.7 µM | 14.4 µM | 15.8 µM | 22.3 |
| NC(=S)N/N=C/C(=O)O | > 100 µM | > 100 µM | – | > 100 µM | > 100 µM | > 100 µM | > 100 µM | > 100 µM | > 100 µM | 14.7 | > 100 | – | > 100 | > 100 | > 100 µM | > 100 | > 100 µM | > 100 µM | > 100 µM | 30.1 |
| Nc1nc(Cl)cc(NCCCCCCCCNc2cc(Cl)nc(N)n2)n1 | > 100 µM | 48.5 µM | – | 48.5 µM | > 100 µM | > 100 µM | 13 µM | > 100 µM | > 100 µM | – | – | – | – | – | – | – | > 100 µM | – | – | – |
| COc1ccc2occ(CCC(=O)O)c2c1 | > 100 µM | > 100 µM | – | – | > 100 µM | > 100 µM | > 100 µM | > 100 µM | > 100 µM | – | – | – | – | – | – | – | > 100 µM | – | – | – |
| O=C(Nc1ccc2ncccc2c1)Nc1ccc2ncccc2c1 | > 100 µM | – | > 100 µM | > 100 µM | > 100 µM | > 100 µM | > 100 µM | > 100 µM | > 100 µM | – | – | – | – | – | – | – | > 100 µM | – | – | – |
| O=C(Nc1ccn(CCO)c(=O)n1)c1ccccc1 | > 100 µM | > 100 µM | > 100 µM | > 100 µM | – | > 100 µM | > 100 µM | > 100 µM | > 100 µM | – | – | – | – | – | – | – | > 100 µM | – | – | – |
| C[N+](C)(C)CC1CCCc2ccccc2C1=O (centres undefined) | 3.27 µM and 8.46 µM | 5.13 µM and 3.01 µM | 12 µM | 42.2 µM | 35 µM | 49.4 µM | 15.5 µM | 12.4 µM | 32.4 µM | 4.27 | 1.16 | – | – | – | – | – | – | – | – | – |
| O=[N+]([O-])c1cccc(C2=NN(c3ccccc3)C[N+](c3ccc(Br)cc3)=N2)c1 | > 100 µM | – | > 100 µM | – | > 100 µM | > 100 µM | > 100 µM | > 100 µM | > 100 µM | – | – | – | – | – | – | – | > 100 µM | – | – | – |
| Cc1ccc(SC2c3ccc(C)cc3Oc3nc(N)c(C#N)c(N)c32)cc1 (centres undefined) | 3.58 µM | 5.49 µM | 3.6 µM | 4 µM | – | 4.07 µM | 3.1 µM | 3.08 µM | 3.22 µM | 1.88 | 2.09 | 1.77 µM | 1.77 | – | 1.94 µM | 2.15 | 5.12 µM | 1.64 µM | 1.69 µM | 1.8 |
| CC1=C(C(=O)Nc2ccc(F)c(Cl)c2)C(c2ccccc2O)NC(=S)N1 (centres undefined) | > 50 µM | > 50 µM | – | > 50 µM | – | > 50 µM | > 50 µM | > 50 µM | > 50 µM | > 50 | > 50 | – | > 50 | – | 21.4 µM | 21.6 | > 50 µM | 21.9 µM | 30.2 µM | 19.8 |
| CO/N=C(/C)c1cccc(Nc2cc(-n3nnc4ccccc43)nc3ccccc23)c1 | > 100 µM | – | 58 µM | > 100 µM | > 100 µM | > 100 µM | 32.5 µM | > 100 µM | > 100 µM | 27 | – | 16.1 µM | 27.3 | 33.6 | 28 µM | 15.1 | > 100 µM | 14.4 µM | > 100 µM | 87.5 |
| CCCCCCCCCCCCCC(=O)OCC(C[As](=O)(O)O)OC(=O)CCCCCCCCCCCCC (centres undefined) | > 100 µM | – | > 100 µM | > 100 µM | > 100 µM | > 100 µM | > 100 µM | > 100 µM | > 100 µM | – | – | – | – | – | – | – | > 100 µM | – | – | – |
| C(=NCCN1CCOCC1)=NC1CCCCC1 | > 100 µM | – | > 100 µM | > 100 µM | > 100 µM | > 100 µM | > 100 µM | > 100 µM | > 100 µM | – | – | – | – | – | – | – | > 100 µM | – | – | – |
| CC(C)CCC1CC2C(=O)N(c3ccccc3)C(=O)C2c2[nH]c3ccccc3c21 (centres undefined) | – | 5.73 µM | 15.1 µM | 12.4 µM | 12.9 µM | 12.2 µM | 13 µM | 3.5 µM | – | – | – | – | – | – | – | – | 11.8 µM | – | – | – |
| Clc1ccc2c(c1)[nH]c1c2nc2ccccn21 | 48.3 µM and 46.6 µM | – | > 100 µM and 35.7 µM | 44.7 µM and 63.9 µM | 72.3 µM and 44.9 µM | > 100 µM and 35.9 µM | > 100 µM and 30.2 µM | > 100 µM and 24.5 µM | 89.4 µM and 32.3 µM | – | – | > 100 µM and 17.5 µM | – | – | 44.3 µM and 17.4 µM | – | 64.7 µM and 54.5 µM | 39.9 µM and 16.4 µM | > 100 µM and 11.9 µM | – |
| CC(=O)CCn1c(=S)sc2ccccc21 | > 100 µM | > 100 µM | – | > 100 µM | > 100 µM | > 100 µM | > 100 µM | > 100 µM | > 100 µM | – | – | – | – | – | – | – | – | – | – | – |
| O=CCC1CCCCC1 | > 100 µM | – | > 100 µM | > 100 µM | > 100 µM | > 100 µM | > 100 µM | – | > 100 µM | – | – | – | – | – | – | – | > 100 µM | – | – | – |
| COC(=O)C1c2cc3c(cc2C(OC2OC(C)C(OC)C(C)(OC)C2OC)CC1(C)O)C(=O)c1c(O)cc2c(c1C3=O)OC1OC2(C)C(O)C([N+](C)(C)[O-])C1O (centres undefined) | > 100 µM | – | 1.25 µM | – | 0.718 µM | – | 0.352 µM | – | – | – | – | – | – | – | – | – | > 100 µM | – | – | – |
| N.N.N.N.O=C([O-])CCl.O=C([O-])CCl.[Co+3].[O-][Cl+3]([O-])([O-])[O-] | > 100 µM | > 100 µM | > 100 µM | – | > 100 µM | > 100 µM | > 100 µM | > 100 µM | > 100 µM | > 100 | > 100 | > 100 µM | – | > 100 | > 100 µM | > 100 | > 100 µM | > 100 µM | > 100 µM | > 100 |
| CC(=O)OC1COC(Oc2c(C)c3c4c(c2O)[C@@H](C)CC[C@@H]4[C@@H](C)C[C@H]3C=C(C)C)C(O)C1OC(C)=O (some centres undefined) | 23.4 µM | – | 32.3 µM | 31.4 µM | 18.6 µM | > 100 µM | 52.7 µM | 22.5 µM | 28.4 µM | 10.8 | – | 15.2 µM | 14.2 | 7.49 | 8.36 µM | 9.02 | 69.8 µM | 24.7 µM | 10.4 µM | 14.1 |
| N#Cc1c(N)nc(N2CCOCC2)c(C#N)c1-c1ccncc1 | > 100 µM | > 100 µM | 98.1 µM | > 100 µM | – | > 100 µM | > 100 µM | > 100 µM | > 100 µM | > 100 | 62.9 | 9.04 µM | 75.9 | – | 98.1 µM | > 100 | > 100 µM | > 100 µM | > 100 µM | 46.6 |
| CC(C)C1=CC23CCC4C(C)(C(=O)O)CCCC4(C)C2CC1C1C(=O)N(c2ccc(Cc4ccc(N5C(=O)C6C7CC8C9(C)CCCC(C)(C(=O)O)C9CCC8(C=C7C(C)C)C6C5=O)cc4)cc2)C(=O)C13 (centres undefined) | 19.1 µM | 63.2 µM | 30.4 µM | 28.4 µM | 10.9 µM | – | 24.8 µM | 14.4 µM | – | – | – | – | – | – | – | – | > 100 µM | – | – | – |
